Values of other authors, collected in patent US20080075658A1, “Method of Radiolabeling Formulations for Gamma Scintigraphy Assessment” (priority 2006, published 2008).

Conditions: radioactive decay of the radionuclide

Compound | half life | half-life [h]
[Tc] [Example 99mTc, technetium] | 6.01 h | –
[Cl-].[Cl-].[Cl-].[In+3] [InCl2, indium chloride] | InCl2 half life is 67.2 hrs | 67.2
[O-2].[O-2].[O-2].[Sm+3].[Sm+3] [Sm2O3, samarium oxide] | 46.27 h | –
